Test results as given in patent US7192962B2, “Xanthine phosphodiesterase V inhibitor polymorphs” (Schering Corporation, priority 2002, dated 2007).
Converted amounts (≈) assume the structure as drawn.

Assays:
[1] = Water solubility of the polymorphs; assay type: physicochemical
[2] = Thermodynamic stability of the polymorphs; assay type: physicochemical; details: at process temperatures
Description: The two polymorphs also further differ in their water solubilities (Form 1: about 50 μg/mL vs. Form 2: about 30 μg/mL). […] Form 1 can equilibrate to Form 2 when slurried in one of the Form 2 crystallizing solvents (e.g., alcohol, nitrile, ester, etc.). For example, when a mixture of Form 1 of Compound 13 and Form 2 of Compound 13 is suspended in an organic crystallizing solvent (e.g., ethyl acetate, isopropanol, acetonitrile, and the like), and stored for an extended period of time (e.g., greater than or equal to about 10 hours), the Form 1 component of the mixture will convert to Form 2 of Compound 13.

PDE V isoenzyme = PDE V isoenzyme (Homo sapiens, UniProt O76074); test: PDE V isoenzyme inhibition; assay type: biochemical; details: concentration required to provide 50% inhibition of PDE V isoenzyme
Excerpt: Forms 1 and 2 of Compound 13 are each useful for inhibiting PDE V isoenzymes. Their isoenzyme activities (potencies) and isoenzyme selectivities can be measured by the PDE V IC50 value, which is the concentration (in nM) of compound required to provide 50% inhibition of PDE V isoenzyme. […] Similarly, an IC50 value may be obtained for other PDE isoenzymes, such as the PDE VI isoenzyme. Isoenzyme selectivity in this respect may be defined as the activity of a PDE inhibitor compound for a particular PDE isoenzyme as opposed to another PDE isoenzyme, for example, the activity of a compound to inhibit a PDE V isoenzyme compared to the activity of the same compound to inhibit a PDE VI isoenzyme.

Structure (SMILES) | water solubility [1] | thermodynamic stability [2] | IC50 (PDE V isoenzyme) | solubility [1]
CCn1c(=O)c2c(nc(N[C@@H]3CCC[C@H]3O)n2Cc2ccc(OC)c(Br)c2)n(CCO)c1=O [Form 2 of Compound 13, 1-ethyl-3,7-dihydro-8-[(1R,2R) -(hydroxycyclopentyl)amino]-3-(2-hydroxyethyl)-7-[(3-bromo-4-methoxyphenyl)methyl]-1H-Purine-2,6-dione] | about 30 μg/mL | more thermodynamically stable than Form 1 of Compound 13 | – | –
CCn1c(=O)c2c(nc(N[C@@H]3CCC[C@H]3O)n2Cc2ccc(OC)c(Br)c2)n(CCO)c1=O [Form 1 of Compound 13, 1-ethyl-3,7-dihydro-8-[(1R,2R) -(hydroxycyclopentyl)amino]-3-(2-hydroxyethyl)-7-[(3-bromo-4-methoxyphenyl)methyl]-1H-Purine-2,6-dione] | – | – | 2 to 3 nM | ~50 µg/mL (≈ 95.7 µM)
